This note sets out measurements from patent US20260374794A1, “COMPOUNDS TARGETING MUTANT OF P53” (JACOBIO PHARMACEUTICALS CO., LTD., priority 2022, published 2026).

By IC50 is commonly meant the concentration at which inhibition is half-maximal. Low values mean higher potency, high ones lower potency.

One test has as its system NUGC-3 (P53 Y220C). Briefly: Cell viability assay (CellTiter-Glo). Format: cell-based. The settings on record: NUGC-3 cells, 6 days, 37 °C. How it is done:
Cells were collected and counted. A desired number of cells was seeded into 96-well microplate and cultured in 37 °C cell incubator overnight. Compounds dissolved in cell culture medium were added into cell plate and cultured for 6 days. After balancing CellTiter-Glo reagent and cells at room temperature for 30 min, equal volume of CellTiter-Glo reagents was added to assay plate and shaken for 2 min for cell lysis. The cells were balanced at room temperature for 10 minutes and Luminescence signal was read using Envision. The percent of cell viability for compounds treated wells were normalized between High control and low control. Wells containing cell culture medium and same percentage DMSO served as Low control. Wells containing cells and same percentage DMSO served as High control. Cell viability (%)=(Luminescence readoutCompound treated−Luminescence readoutLow control)/(Luminescence readoutHigh control−Luminescence readoutLow control)*100%. Then the data were analyzed either by fitting a 4-parameter logistic model or by Excel to calculate IC50 values. And the IC50 was the concentration at […] Cell viability on the curve.
In general terms: In ATP-based viability assays light output follows the ATP content of the culture.

A further test addresses p53(Y220C)_NUGC-3 (Homo sapiens, UniProt P04637, Y220C). Briefly: Reporter gene assay (NUGC-3_P53_Luc cells). Format: cell-based. How it is done: NUGC-3_P53_Luc single clonal cell line was established using pGL4.38[luc2P/p53 RE/Hygro] Vector (E365A, promega). NUGC-3_P53_Luc single clonal cells were cultured in 37 °C cell incubator before use. NUGC-3_P53_Luc cells were collected and washed twice with PBS to remove phenol red and then resuspended in medium to a proper concentration. Tested compound dilutions were transferred into 384 well assay plates (PerkinElmer). A desired number of cells was seeded into the assay plate and cultured for 6 hours at 37 °C cell incubator. Britelite plus Luciferase Assay Reagent were added into each well and the luminescence value was recorded on Envision. The percent of activity value of compounds treated wells was normalized between high control and low control. Wells containing cells and Ref-la (10 μM) served as high control, and wells containing cells and same percentage of DMSO served as low control. Activity value (%)=(Luminescence readoutCompound treated−Luminescence readoutLow control)/(Luminescence readoutHigh control−Luminescence readoutLow control)*100%. Then the data were analyzed either by fitting a 4-parameter logistic model or by Excel to calculate EC50 values and the EC50 was the concentration at 50% Activity on the curve.
On the technique in general: Reporter assays use an easily measured gene product as a stand-in for the process of interest.

The target of the next test is T1, p53(Y220C) (Homo sapiens, UniProt P04637, Y220C).
T1 construct: His-p53 Y220C (94-294) protein
The test is described as follows: In vitro DNA binding assay (HTRF), His-p53 Y220C (94-294) with biotinylated p53 consensus DNA. Format: biochemical. The method in brief: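 His-p53 Y220C (94-294), 2.5 nM, preincubated with compound and anti-His-Tb cryptate 15 min at 25 °C then 60 min at 27 °C; 10 nM biotinylated consensus DNA with streptavidin-d2 added for 60 min more (HEPES pH 7.4, 75 mM KCl). HTRF 665/620 ratio, normalized to 2 μM Ref-1a high control; EC50 from 4-parameter fit.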
On the technique in general: Time-resolved FRET reads energy transfer from a long-lived donor to a nearby acceptor.

The mark [1] stands for this setting: 6 hours, 37 °C, luciferase, normalized to Ref-1a 10 μM, EC50 = concentration at 50% Activity, read-out: p53(Y220C)_NUGC-3 EC50.
Where [2] appears, read: HTRF, 27 °C, His-p53 Y220C (94-294) 2.5 nM, biotinylated DNA 10 nM, normalized to 2 μM Ref-1a, EC50 = concentration at 50% Activation, read-out: p53(Y220C) EC50.

Read-outs that look alike come from different tables or passages of the source.

In turn, `COc1nc([S@@](C)(=N)=O)ccc1NCC#Cc1sc2c(N[C@@H]3CCN(C)C[C@@H]3F)cccc2c1CC(F)(F)F` [Example 45, (S)-(5-((3-(7-(((3S,4R)-3-fluoro-1-methylpiperidin-4-yl)amino)-3-(2,2,2-trifluoroethyl)benzo[b]thiophen-2-yl)prop-2-yn-1-yl)amino)-6-methoxypyridin-2-yl)(imino)(methyl)-16-sulfanone] gave an IC50 with NUGC-3 (P53 Y220C) (Homo sapiens, 144 h) of 1330 nM. Moreover, the EC50 was 95 nM on p53(Y220C)_NUGC-3 (setting [1]) and 65 nM on p53(Y220C) (setting [2]).
In the same order, the values of `CCOc1c(P(C)(C)=O)ccc(NCC#Cc2sc3c(N[C@@H]4CCN(C)C[C@@H]4F)cccc3c2CC(F)(F)F)c1OC` [Example 43, (2-ethoxy-4-((3-(7-(((3S,4R)-3-fluoro-1-methylpiperidin-4-yl)amino)-3-(2,2,2-trifluoroethyl)benzo[b]thiophen-2-yl)prop-2-yn-1-yl)amino)-3-methoxyphenyl)dimethylphosphine oxide] are 590 nM, 160 nM and 56 nM.
Taken in the same sequence, the figures for `COc1c(NCC#Cc2sc3c(N[C@@H]4CCN(C)C[C@@H]4F)cccc3c2CC(F)(F)F)ccc(P(C)(C)=O)c1OC` [Example 57, (4-((3-(7-(((3S,4R)-3-fluoro-1-methylpiperidin-4-yl)amino)-3-(2,2,2-trifluoroethyl)benzo[b]thiophen-2-yl)prop-2-yn-1-yl)amino)-2,3-dimethoxyphenyl)dimethylphosphine oxide] were 790 nM, 164 nM and 37 nM.
In the same order, the values of `COc1cc(P(C)(C)=O)ccc1NCC#Cc1sc2c(N[C@@H]3CCCN(C)C3)cccc2c1CC(F)(F)F` [Example 28, (R)-(3-methoxy-4-((3-(7-((1-methylpiperidin-3-yl)amino)-3-(2,2,2-trifluoroethyl)benzo[b]thiophen-2-yl)prop-2-yn-1-yl)amino)phenyl)dimethylphosphine oxide] are 1550 nM, 244 nM and 77 nM.
Molecule `COc1cc([S@@](C)(=N)=O)ccc1NCC#Cc1sc2c(N[C@H]3CCN(C)C[C@@H]3F)cccc2c1[C@@H](O)C(F)(F)F` [Example 58, (S)-(4-((3-(7-(((3S,4S)-3-fluoro-1-methylpiperidin-4-yl)amino)-3-((R)-2,2,2-trifluoro-1-hydroxyethyl)benzo[b]thiophen-2-yl)prop-2-yn-1-yl)amino)-3-methoxyphenyl)(imino)(methyl)-16-sulfanone] came in with an IC50 in the test on NUGC-3 (P53 Y220C) (Homo sapiens, 144 h) of 400 nM. The EC50 was determined as 44 nM at p53(Y220C)_NUGC-3 (setting [1]) and 35 nM at p53(Y220C) (setting [2]).
As to `[2H]C([2H])([2H])Oc1nc(P(C)(C)=O)ccc1NCC#Cc1sc2c(N[C@@H]3CCN(C)C[C@@H]3F)cccc2c1CC(F)(F)F` [Example 56, (5-((3-(7-(((3S,4R)-3-fluoro-1-methylpiperidin-4-yl)amino)-3-(2,2,2-trifluoroethyl)benzo[b]thiophen-2-yl)prop-2-yn-1-yl)amino)-6-(methoxy-d3)pyridin-2-yl)dimethylphosphine oxide], the IC50 with NUGC-3 (P53 Y220C) (Homo sapiens, 144 h) was 430 nM. Moreover, the EC50 on p53(Y220C)_NUGC-3 (setting [1]) was found to be 61 nM; at p53(Y220C) (setting [2]), 45 nM.
`COc1cc([S@@](=N)(=O)C2CC2)ccc1NCC#Cc1sc2c(N[C@@H]3CCN(C)C[C@@H]3F)cccc2c1CC(F)(F)F` [Example 54, (S)-cyclopropyl(4-((3-(7-(((3S,4R)-3-fluoro-1-methylpiperidin-4-yl)amino)-3-(2,2,2-trifluoroethyl)benzo[b]thiophen-2-yl)prop-2-yn-1-yl)amino)-3-methoxyphenyl)(imino)-16-sulfanone]: the IC50 in the test on NUGC-3 (P53 Y220C) was found to be 1050 nM. The EC50 is 143 nM on p53(Y220C)_NUGC-3 (setting [1]) and 58 nM at p53(Y220C) (setting [2]).
Taken in the same sequence, the figures for `COc1cc([S@](=N)(=O)C2COC2)ccc1NCC#Cc1sc2c(N[C@@H]3CCN(C)C[C@@H]3F)cccc2c1CC(F)(F)F` [Example 49, (R)-(4-((3-(7-(((3S,4R)-3-fluoro-1-methylpiperidin-4-yl)amino)-3-(2,2,2-trifluoroethyl)benzo[b]thiophen-2-yl)prop-2-yn-1-yl)amino)-3-methoxyphenyl)(imino)(oxetan-3-yl)-16-sulfanone] were 750 nM, 64 nM and 51 nM.
For `COc1cc(P(C)(C)=O)ccc1NCC#Cc1sc2c(N[C@@H]3CCN(C)C[C@@H]3F)cccc2c1[C@@H](O)C(F)(F)F` [Example 33, (4-((3-(7-(((3S,4R)-3-fluoro-1-methylpiperidin-4-yl)amino)-3-((R)-2,2,2-trifluoro-1-hydroxyethyl)benzo[b]thiophen-2-yl)prop-2-yn-1-yl)amino)-3-methoxyphenyl)dimethylphosphine oxide], the IC50 with NUGC-3 (P53 Y220C) (Homo sapiens, 144 h) worked out at 1440 nM. Moreover, the EC50 on p53(Y220C)_NUGC-3 (setting [1]) was found to be 102 nM; at p53(Y220C) (setting [2]) it was 55 nM.
Taken in the same sequence, the figures for `COc1cc(P(C)(C)=O)ccc1NCC#Cc1sc2c(N[C@@H]3CCN(C)C[C@@H]3F)cccc2c1[C@H](O)C(F)(F)F` [Example 31, (4-((3-(7-(((3S,4R)-3-fluoro-1-methylpiperidin-4-yl)amino)-3-((S)-2,2,2-trifluoro-1-hydroxyethyl)benzo[b]thiophen-2-yl)prop-2-yn-1-yl)amino)-3-methoxyphenyl)dimethylphosphine oxide] were 870 nM, 126 nM and 29 nM.
Turning to `COc1nc([S@](C)(=N)=O)ccc1NCC#Cc1sc2c(N[C@@H]3CCN(C)C[C@@H]3F)cccc2c1CC(F)(F)F` [Example 44, (R)-(5-((3-(7-(((3S,4R)-3-fluoro-1-methylpiperidin-4-yl)amino)-3-(2,2,2-trifluoroethyl)benzo[b]thiophen-2-yl)prop-2-yn-1-yl)amino)-6-methoxypyridin-2-yl)(imino)(methyl)-16-sulfanone], the midpoint of inhibition in the test with NUGC-3 (P53 Y220C) (Homo sapiens, 144 h), the IC50, lay at 1350 nM. Further, the EC50 was 84 nM at p53(Y220C)_NUGC-3 (setting [1]) and 46 nM at p53(Y220C) (setting [2]).
Taken in the same sequence, the figures for `COc1cc(P(C)(C)=O)ccc1NCC#Cc1sc2c(N[C@H]3CCN(C)C[C@H]3F)cccc2c1[C@@H](O)C(F)(F)F` [Example 34, (4-((3-(7-(((3R,4S)-3-fluoro-1-methylpiperidin-4-yl)amino)-3-((R)-2,2,2-trifluoro-1-hydroxyethyl)benzo[b]thiophen-2-yl)prop-2-yn-1-yl)amino)-3-methoxyphenyl)dimethylphosphine oxide] were 380 nM, 28 nM and 20 nM.
The molecule `COc1cc(P(C)(C)=O)ccc1NCC#Cc1sc2c(N[C@@H]3CN4CCC3CC4)cccc2c1CC(F)(F)F` [Example 48, (S)-(3-methoxy-4-((3-(7-(quinuclidin-3-ylamino)-3-(2,2,2-trifluoroethyl)benzo[b]thiophen-2-yl)prop-2-yn-1-yl)amino)phenyl)dimethylphosphine oxide] showed an IC50 in the test with NUGC-3 (P53 Y220C) (Homo sapiens, 144 h) of 1600 nM. For the same molecule, the EC50 on p53(Y220C)_NUGC-3 (read-out: p53(Y220C)_NUGC-3 EC50, 6 hours, 37 °C, luciferase, normalized to Ref-1a 10 μM, EC50 = concentration at 50% Activity) came to 439 nM; on p53(Y220C), 65 nM.
